Results published in ChEMBL document CHEMBL5223069, “Design, synthesis and biological evaluation of vortioxetine derivatives as new COX-1/2 inhibitors in human monocytes” (Bioorg Med Chem, 2020).
Activity calls are given as the source filed them. The calls are words filed in the database; no cut-off is given here.

Assays:
Monocyte [1] = test: Inhibition of PMA-induced oxidative burst in human monocytes preincubated for 1 hr followed by PMA stimulation and measured after 30 mins; assay type: functional, cell-based
Monocyte [2] = test: Induction of IL-10 mRNA expression in human monocytes at 7.5 nM incubated for 1 hr by RT-PCR analysis; assay type: functional, cell-based
Monocyte [3] = test: Induction of TNF-alpha mRNA expression in human monocytes at 7.5 nM incubated for 1 hr by RT-PCR analysis; assay type: functional, cell-based
Monocyte [4] = test: Cytotoxicity against human monocytes assessed as reduction in cell viability at 0.01 to 10 uM incubated for 1 to 6 hrs by MTT assay; assay type: toxicity, cell-based; conditions: dose lower 0.01 µM, time lower 1 hrs, dose upper 10 µM, time upper 6 hrs
Monocyte [5] = test: Modulation of LPS-induced IL-1beta mRNA expression in human monocytes at 7.5 nM preincubated for 1 hr followed by LPS stimulation and measured after 30 mins by RT-PCR analysis; assay type: functional, cell-based; conditions: time 1.5 hrs
Monocyte [6] = test: Induction of IL-6 mRNA expression in human monocytes at 7.5 nM incubated for 1 hr by RT-PCR analysis; assay type: functional, cell-based
[7] = target: Prostaglandin G/H synthase 1 (Homo sapiens) (UniProt P23219); test: Inhibition of human COX-1 at 0.1 to 50 nM by spectrophotometer analysis; conditions: dose 0.1-50 nM
Monocyte [8] = test: Modulation of LPS-induced TNF-alpha mRNA expression in human monocytes at 7.5 nM preincubated for 1 hr followed by LPS stimulation and measured after 30 mins by RT-PCR analysis; assay type: functional, cell-based; conditions: time 1.5 hrs
Monocyte [9] = test: Modulation of LPS-induced IL-6 mRNA expression in human monocytes at 7.5 nM preincubated for 1 hr followed by LPS stimulation and measured after 30 mins by RT-PCR analysis; assay type: functional, cell-based; conditions: time 1.5 hrs
Monocyte [10] = test: Modulation of LPS-induced IL-10 mRNA expression in human monocytes at 7.5 nM preincubated for 1 hr followed by LPS stimulation and measured after 30 mins by RT-PCR analysis; assay type: functional, cell-based; conditions: time 1.5 hrs
Monocyte [11] = test: Induction of IL-1beta mRNA expression in human monocytes at 7.5 nM incubated for 1 hr by RT-PCR analysis; assay type: functional, cell-based
Monocyte [12] = test: Induction of superoxide anion production in human monocytes assessed as increase in reduced cytochrome C level at 0.0025 to 1 uM incubated for 1 hr; assay type: functional, cell-based; conditions: dose 0.0025-1 µM
Monocyte [13] = test: Modulation of COX-1 mRNA expression in human monocytes at 7.5 nM incubated for 1 hr by RT-PCR analysis; assay type: functional, cell-based
Monocyte [14] = test: Inhibition of PMA-induced oxidative burst in human monocytes at 0.1 to 50 nM preincubated for 1 hr followed by PMA stimulation and measured after 30 mins relative to control; assay type: functional; conditions: dose 0.1-50 nM, time 1.5 hrs
Monocyte [15] = test: Induction of IL-6 mRNA expression in human monocytes at 1 uM incubated for 1 hr by RT-PCR analysis; assay type: functional, cell-based
Monocyte [16] = test: Modulation of LPS-induced TNF-alpha mRNA expression in human monocytes at 1 uM preincubated for 1 hr followed by LPS stimulation and measured after 30 mins by RT-PCR analysis; assay type: functional, cell-based; conditions: time 1.5 hrs
Monocyte [17] = test: Induction of IL-1beta mRNA expression in human monocytes at 1 uM incubated for 1 hr by RT-PCR analysis; assay type: functional, cell-based
Monocyte [18] = test: Modulation of LPS-induced IL-6 mRNA expression in human monocytes at 1 uM preincubated for 1 hr followed by LPS stimulation and measured after 30 mins by RT-PCR analysis; assay type: functional, cell-based; conditions: time 1.5 hrs
[19] = target: T1, Prostaglandin G/H synthase 2 (Homo sapiens) (UniProt P35354); conditions: dose 0.1-50 nM
T1 sequence (whole entry): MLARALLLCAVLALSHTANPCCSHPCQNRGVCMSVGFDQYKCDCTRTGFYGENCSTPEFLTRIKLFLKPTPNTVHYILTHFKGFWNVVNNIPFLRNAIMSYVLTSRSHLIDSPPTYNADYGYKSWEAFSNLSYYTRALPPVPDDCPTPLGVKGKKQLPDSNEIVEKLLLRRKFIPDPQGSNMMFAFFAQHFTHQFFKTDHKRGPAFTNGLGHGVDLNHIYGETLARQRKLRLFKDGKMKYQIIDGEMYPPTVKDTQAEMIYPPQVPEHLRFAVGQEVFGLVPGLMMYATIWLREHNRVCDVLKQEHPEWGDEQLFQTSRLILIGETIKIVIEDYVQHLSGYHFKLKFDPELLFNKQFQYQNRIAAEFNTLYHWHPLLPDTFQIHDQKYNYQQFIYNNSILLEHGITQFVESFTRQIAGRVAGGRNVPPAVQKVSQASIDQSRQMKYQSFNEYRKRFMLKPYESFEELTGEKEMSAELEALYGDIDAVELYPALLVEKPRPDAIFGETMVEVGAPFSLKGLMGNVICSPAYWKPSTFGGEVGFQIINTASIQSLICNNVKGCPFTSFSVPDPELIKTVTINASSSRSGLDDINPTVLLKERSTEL
Description: Inhibition of human COX-2 at 0.1 to 50 nM by spectrophotometer analysis

Monocyte [20] = test: Induction of TNF-alpha mRNA expression in human monocytes at 1 uM incubated for 1 hr by RT-PCR analysis; assay type: functional, cell-based
Monocyte [21] = test: Modulation of LPS-induced IL-10 mRNA expression in human monocytes at 1 uM preincubated for 1 hr followed by LPS stimulation and measured after 30 mins by RT-PCR analysis; assay type: functional, cell-based; conditions: time 1.5 hrs
Monocyte [22] = test: Induction of IL-10 mRNA expression in human monocytes at 1 uM incubated for 1 hr by RT-PCR analysis; assay type: functional, cell-based
Monocyte [23] = test: Modulation of LPS-induced IL-1beta mRNA expression in human monocytes at 1 uM preincubated for 1 hr followed by LPS stimulation and measured after 30 mins by RT-PCR analysis; assay type: functional, cell-based; conditions: time 1.5 hrs
Monocyte [24] = test: Downregulation of PMA-induced TNF-alpha mRNA expression in human monocytes at 7.5 nM preincubated for 1 hr followed by PMA stimulation and measured after 30 mins by RT-PCR analysis; assay type: functional, cell-based; conditions: time 1.5 hrs
Monocyte [25] = test: Inhibition of PMA-induced IL-1beta mRNA expression in human monocytes at 7.5 nM preincubated for 1 hr followed by PMA stimulation and measured after 30 mins by RT-PCR analysis; assay type: functional, cell-based; conditions: time 1.5 hrs
Monocyte [26] = test: Inhibition of PMA-induced COX-2 expression in human monocytes at 7.5 nM preincubated for 1 hr followed by PMA stimulation and measured after 30 mins by RT-PCR analysis; assay type: functional, cell-based; conditions: time 1.5 hrs
Monocyte [27] = test: Downregulation of PMA-induced IL-6 mRNA expression in human monocytes at 7.5 nM preincubated for 1 hr followed by PMA stimulation and measured after 30 mins by RT-PCR analysis; assay type: functional, cell-based; conditions: time 1.5 hrs

Sequence of Prostaglandin G/H synthase 1 (Homo sapiens) (P23219 whole entry): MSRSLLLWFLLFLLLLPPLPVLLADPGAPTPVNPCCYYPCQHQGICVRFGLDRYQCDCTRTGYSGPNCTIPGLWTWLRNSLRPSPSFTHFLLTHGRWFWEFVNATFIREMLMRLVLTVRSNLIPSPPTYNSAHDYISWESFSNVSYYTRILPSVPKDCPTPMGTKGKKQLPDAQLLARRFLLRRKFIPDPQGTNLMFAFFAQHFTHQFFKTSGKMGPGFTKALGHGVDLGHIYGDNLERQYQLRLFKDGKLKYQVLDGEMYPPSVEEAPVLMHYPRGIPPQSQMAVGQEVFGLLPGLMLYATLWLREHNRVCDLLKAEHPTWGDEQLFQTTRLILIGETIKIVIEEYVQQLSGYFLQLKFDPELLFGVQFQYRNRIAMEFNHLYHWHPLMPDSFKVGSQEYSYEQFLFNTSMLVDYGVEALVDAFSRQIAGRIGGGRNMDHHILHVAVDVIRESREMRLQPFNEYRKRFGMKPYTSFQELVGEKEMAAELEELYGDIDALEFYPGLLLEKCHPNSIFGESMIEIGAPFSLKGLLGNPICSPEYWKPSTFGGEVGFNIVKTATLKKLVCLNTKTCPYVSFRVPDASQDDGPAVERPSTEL

For Cc1ccc(Sc2ccccc2N2CCN(Cc3ccccc3C(F)(F)F)CC2)c(C)c1, the IC50 (Monocyte [1]) was 6.3 nM, the Activity (Monocyte [2]) was “inactive” and the Activity (Monocyte [3]) was “inactive”. For the same molecule, the Activity (Monocyte [4]) was “Non-Toxic”, the Activity (Monocyte [5]) was “inactive” and the Activity (Monocyte [6]) was “inactive”. For the same molecule, the inhibition [7] was “Active”, the Activity (Monocyte [8]) was “inactive” and the Activity (Monocyte [9]) was “inactive”. For the same molecule, the Activity (Monocyte [10]) was “inactive”, the Activity (Monocyte [11]) was “inactive” and the Activity (Monocyte [12]) was “inactive”. For the same molecule, the Activity (Monocyte [13]) was “inactive” and the “inhibition (INH)” value (Monocyte [14]) was 80%.
In the case of CC(=O)N1CCN(c2ccccc2Sc2ccc(C)cc2C)CC1, the Activity (Monocyte [4]) is reported as “Non-Toxic” and the Activity (Monocyte [12]) is reported as “inactive”.
For CS(=O)(=O)c1ccc(C2=C(c3ccccc3)C(=O)OC2)cc1, the Activity (Monocyte [15]) was “inactive”, the Activity (Monocyte [16]) was “inactive” and the Activity (Monocyte [17]) was “inactive”. The Activity (Monocyte [18]) was “inactive”, the inhibition [19] was “Active” and the Activity (Monocyte [20]) was “inactive”. For the same molecule, the Activity (Monocyte [21]) was “inactive”, the Activity (Monocyte [22]) was “inactive” and the Activity (Monocyte [23]) was “inactive”.
With Cc1ccc(Sc2ccccc2N2CCN(CC3CCCC3)CC2)c(C)c1 the IC50 (Monocyte [1]) was 2.7 nM, the Activity (Monocyte [2]) was “inactive” and the Activity (Monocyte [3]) was “inactive”. For the same molecule, the Activity (Monocyte [4]) was “Non-Toxic”, the inhibition [19] was “Active” and the Activity (Monocyte [5]) was “inactive”. For the same molecule, the Activity (Monocyte [6]) was “inactive”, the inhibition [7] was “Active” and the Activity (Monocyte [8]) was “inactive”. For the same molecule, the Activity (Monocyte [9]) was “inactive”, the Activity (Monocyte [10]) was “inactive” and the Activity (Monocyte [11]) was “inactive”. For the same molecule, the Activity (Monocyte [12]) was “inactive”, the Activity (Monocyte [13]) was “inactive” and the “inhibition (INH)” value (Monocyte [14]) was 70%.
With COc1ccc2c(c1)c(CC(=O)O)c(C)n2C(=O)c1ccc(Cl)cc1 the Activity (Monocyte [15]) was “inactive”, the Activity (Monocyte [16]) was “inactive” and the Activity (Monocyte [17]) was “inactive”. The Activity (Monocyte [18]) was “inactive”, the Activity (Monocyte [20]) was “inactive” and the Activity (Monocyte [21]) was “inactive”. The Activity (Monocyte [22]) was “inactive” and the Activity (Monocyte [23]) was “inactive”.
In the case of Cc1ccc(Sc2ccccc2N2CCNCC2)c(C)c1 [VORTIOXETINE], the IC50 (Monocyte [1]) is reported as 2.9 nM, the Activity (Monocyte [2]) is reported as “inactive” and the Activity (Monocyte [3]) is reported as “inactive”. For the same molecule, the Activity (Monocyte [4]) was “Non-Toxic”, the Activity (Monocyte [5]) was “inactive” and the Activity (Monocyte [6]) was “inactive”. For the same molecule, the Activity (Monocyte [8]) was “inactive”, the Activity (Monocyte [9]) was “inactive” and the Activity (Monocyte [10]) was “inactive”. The Activity (Monocyte [11]) was “inactive”, the Activity (Monocyte [12]) was “inactive” and the Activity (Monocyte [24]) was “Active”. For the same molecule, the Activity (Monocyte [13]) was “inactive”, the inhibition (Monocyte [25]) was “Active” and the “inhibition (INH)” value (Monocyte [14]) was 90%.
In the case of Cc1ccc(Sc2ccccc2N2CCN(Cc3ccccc3F)CC2)c(C)c1, the IC50 (Monocyte [1]) is reported as 6.5 nM, the Activity (Monocyte [2]) is reported as “inactive” and the Activity (Monocyte [3]) is reported as “inactive”. The inhibition (Monocyte [26]) was “Active”, the Activity (Monocyte [4]) was “Non-Toxic” and the inhibition [19] was “Active”. The Activity (Monocyte [5]) was “inactive”, the Activity (Monocyte [6]) was “inactive” and the inhibition [7] was “Active”. For the same molecule, the Activity (Monocyte [27]) was “Active”, the Activity (Monocyte [8]) was “inactive” and the Activity (Monocyte [9]) was “inactive”. The Activity (Monocyte [10]) was “Active”, the Activity (Monocyte [11]) was “inactive” and the Activity (Monocyte [12]) was “inactive”. For the same molecule, the Activity (Monocyte [13]) was “inactive” and the “inhibition (INH)” value (Monocyte [14]) was 70%.
In the case of Cc1ccc(Sc2ccccc2N2CCN(Cc3ccc(Cl)cc3)CC2)c(C)c1, the Activity (Monocyte [4]) is reported as “Non-Toxic” and the Activity (Monocyte [12]) is reported as “inactive”.
For Cc1ccc(Sc2ccccc2N2CCN(CC(=O)O)CC2)c(C)c1, the IC50 (Monocyte [1]) was 0.35 nM, the Activity (Monocyte [2]) was “Active” and the Activity (Monocyte [3]) was “inactive”. For the same molecule, the Activity (Monocyte [4]) was “Non-Toxic”, the Activity (Monocyte [5]) was “inactive” and the Activity (Monocyte [6]) was “inactive”. For the same molecule, the inhibition [7] was “Active”, the Activity (Monocyte [8]) was “inactive” and the Activity (Monocyte [9]) was “inactive”. For the same molecule, the Activity (Monocyte [10]) was “inactive”, the Activity (Monocyte [11]) was “inactive” and the Activity (Monocyte [12]) was “inactive”. For the same molecule, the Activity (Monocyte [13]) was “inactive” and the “inhibition (INH)” value (Monocyte [14]) was 90%.
In the case of Cc1ccc(Sc2ccccc2N2CCN(S(C)(=O)=O)CC2)c(C)c1, the Activity (Monocyte [4]) is reported as “Non-Toxic” and the Activity (Monocyte [12]) is reported as “inactive”.
In the case of Cc1ccc(Sc2ccccc2N2CCN(CCO)CC2)c(C)c1, the Activity (Monocyte [4]) is reported as “Non-Toxic” and the Activity (Monocyte [12]) is reported as “inactive”.
Cc1ccc(S(=O)(=O)N2CCN(c3ccccc3Sc3ccc(C)cc3C)CC2)cc1 was tested, and the Activity (Monocyte [4]) was “Non-Toxic” and the Activity (Monocyte [12]) was “inactive”.
With CCN1CCN(c2ccccc2Sc2ccc(C)cc2C)CC1 the Activity (Monocyte [4]) was “Non-Toxic” and the Activity (Monocyte [12]) was “inactive”.
